Data as given in patent publication US9573957B2 (Boehringer Ingelheim International GmbH, priority 2013, dated 2017).

What was measured:
human LTA4 hydrolase = human LTA4 hydrolase (Homo sapiens (Human), UniProt P09960); experiment: LTA4H Enzyme assay (peptidase, Arg-AMC cleavage); format: biochemical; details: LTA4H Enzyme 1 nM, Arg-AMC substrate 50 μM, room temperature 1 h, fluorescence
Procedure: The compounds of the invention are assessed for the ability to interact with human LTA4 hydrolase in an enzymatic assay that measures the ability of the enzyme to cleave the peptide bond of arginyl-aminomethylcoumarin (Arg-AMC). LTA4H Enzyme (1 nM final), Arg-AMC substrate (50 μM final), and compound are combined in a reaction buffer (50 mM Tris-HCl (pH 7.5), 100 mM KCl, 0.5% bovine serum albumin) at room temperature for 1 h. The formation of product is assessed by measuring the fluorescence of aminomethylcoumarin product (excitation wavelength 380 nm/emission wavelength 460 nm).

[1] = test system: synthesis of LTB4 in human whole blood; experiment: LTB4 production inhibition assay in human whole blood (HWB); format: cell-based; details: heparinized human whole blood, 15 min at 37° C., Calcimycin 20 μM 30 min, plasma LTB4 by HTRF
Procedure: The compounds of the invention are additionally tested in a human whole blood (HWB) assay to determine their ability to inhibit the synthesis of LTB4 in a cellular system. Compounds are combined with heparinized human whole blood and incubated for 15 minutes at 37° C. Calcimycin (20 μM final, prepared in phosphate-buffered saline, pH 7.4) is then added and the mixture is incubated for another 30 minutes at 37° C. The samples are centrifuged for 5 min at low speed (1500×g) and the plasma layer is removed. Plasma LTB4 concentrations are then measured using an antibody-based homogenous time-resolved fluorescence method (CisBio, Bedford, Mass.).

human LTA4 hydrolase, sequence (P09960 whole entry): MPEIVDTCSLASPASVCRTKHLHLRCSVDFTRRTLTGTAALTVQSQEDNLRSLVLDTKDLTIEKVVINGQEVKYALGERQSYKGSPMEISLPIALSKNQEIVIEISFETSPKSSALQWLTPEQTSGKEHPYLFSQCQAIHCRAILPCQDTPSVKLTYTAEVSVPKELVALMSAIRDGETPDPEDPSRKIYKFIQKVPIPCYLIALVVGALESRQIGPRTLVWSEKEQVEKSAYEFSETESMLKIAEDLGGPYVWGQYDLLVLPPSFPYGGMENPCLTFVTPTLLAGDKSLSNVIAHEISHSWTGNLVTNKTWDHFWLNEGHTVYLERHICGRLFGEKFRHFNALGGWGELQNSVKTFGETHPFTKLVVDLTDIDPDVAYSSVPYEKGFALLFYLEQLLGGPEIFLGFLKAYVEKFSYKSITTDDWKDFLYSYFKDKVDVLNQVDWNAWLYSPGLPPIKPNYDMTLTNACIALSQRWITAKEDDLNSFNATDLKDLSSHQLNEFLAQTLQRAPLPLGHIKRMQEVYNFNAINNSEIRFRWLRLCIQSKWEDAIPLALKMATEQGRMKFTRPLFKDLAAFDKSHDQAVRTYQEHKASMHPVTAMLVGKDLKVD

IC50 (human LTA4 hydrolase) | IC50 [1] | Compound
0.43 nM | 140 nM | OC1CN(Cc2ccc3cc(Oc4ccc(-c5ccn[nH]5)cn4)ccc3c2)C1 [Example 1, 1-{6-[5-(2H-Pyrazol-3-yl)-pyridin-2-yloxy]-naphthalen-2-ylmethyl}-azetidin-3-ol]
0.46 nM | 210 nM | NC(=O)C1CN(Cc2ccc3cc(Oc4ccc(-c5ccn[nH]5)cn4)ccc3c2)C1 [Example 2, 1-{6-[5-(2H-Pyrazol-3-yl)-pyridin-2-yloxy]-naphthalen-2-ylmethyl}-azetidine-3-carboxylic acid amide]
0.5 nM | 200 nM | CC(=O)NC1CN(Cc2ccc3cc(Oc4ccc(-c5ccn[nH]5)cn4)ccc3c2)C1 [Example 3, N-(1-{6-[5-(2H-Pyrazol-3-yl)-pyridin-2-yloxy]-naphthalen-2-ylmethyl}-azetidin-3-yl)-acetamide]
0.48 nM | 160 nM | OCC1CN(Cc2ccc3cc(Oc4ccc(-c5ccn[nH]5)cn4)ccc3c2)C1 [Example 4, (1-{6-[5-(2H-Pyrazol-3-yl)-pyridin-2-yloxy]-naphthalen-2-ylmethyl}-azetidin-3-yl)-methanol]
0.6 nM | 130 nM | O[C@H]1CCN(Cc2ccc3cc(Oc4ccc(-c5ccn[nH]5)cn4)ccc3c2)C1 [Example 5, (S)-1-{6-[5-(2H-Pyrazol-3-yl)-pyridin-2-yloxy]-naphthalen-2-ylmethyl}-pyrrolidin-3-ol]
0.57 nM | 130 nM | O[C@@H]1CCN(Cc2ccc3cc(Oc4ccc(-c5ccn[nH]5)cn4)ccc3c2)C1 [Example 6, (R)-1-{6-[5-(2H-Pyrazol-3-yl)-pyridin-2-yloxy]-naphthalen-2-ylmethyl}-pyrrolidin-3-ol]
0.4 nM | 120 nM | O=C(CO)N1CCN(Cc2ccc3cc(Oc4ccc(-c5ccn[nH]5)cn4)ccc3c2)CC1 [Example 7, 2-Hydroxy-1-(4-{6-[5-(2H-pyrazol-3-yl)-pyridin-2-yloxy]-naphthalen-2-ylmethyl}-piperazin-1-yl)-ethanone]
0.86 nM | 230 nM | O=C1[C@@H](O)CCN1C1CCN(Cc2ccc3cc(Oc4ccc(-c5ccn[nH]5)cn4)ccc3n2)CC1 [Example 8, (S)-3-Hydroxy-1-(1-{6-[5-(2H-pyrazol-3-yl)-pyridin-2-yloxy]-quinolin-2-ylmethyl}-piperidin-4-yl)-pyrrolidin-2-one]
0.5 nM | 170 nM | O=C(CO)NC1CCN(Cc2ccc3cc(Oc4ccc(-c5ccn[nH]5)cn4)ccc3c2)CC1 [Example 9, 2-Hydroxy-N-(1-{6-[5-(2H-pyrazol-3-yl)-pyridin-2-yloxy]-naphthalen-2-ylmethyl}-piperidin-4-yl)-acetamide]
0.48 nM | 150 nM | OC1CC2(C1)CN(Cc1ccc3cc(Oc4ccc(-c5ccn[nH]5)cn4)ccc3c1)C2 [Example 10, 2-{6-[5-(2H-Pyrazol-3-yl)-pyridin-2-yloxy]-naphthalen-2-ylmethyl}-2-aza-spiro[3.3]heptan-6-ol]
0.53 nM | 110 nM | CC1(O)CN(Cc2ccc3cc(Oc4ccc(-c5ccn[nH]5)cn4)ccc3c2)C1 [Example 11, 3-Methyl-1-{6-[5-(2H-pyrazol-3-yl)-pyridin-2-yloxy]-naphthalen-2-ylmethyl}-azetidin-3-ol]
0.34 nM | 120 nM | CC(=O)N[C@@H]1CCN(Cc2ccc3cc(Oc4ccc(-c5ccn[nH]5)cn4)ccc3c2)C1 [Example 12, N-((R)-1-{6-[5-(2H-Pyrazol-3-yl)-pyridin-2-yloxy]-naphthalen-2-ylmethyl}-pyrrolidin-3-yl)-acetamide]
0.79 nM | 290 nM | CC(=O)N[C@H]1CCN(Cc2ccc3cc(Oc4ccc(-c5ccn[nH]5)cn4)ccc3c2)C1 [Example 13, N-((S)-1-{6-[5-(2H-Pyrazol-3-yl)-pyridin-2-yloxy]-naphthalen-2-ylmethyl}-pyrrolidin-3-yl)-acetamide]
1.2 nM | 190 nM | O[C@H]1CCCN(Cc2ccc3cc(Oc4ccc(-c5ccn[nH]5)cn4)ccc3c2)C1 [Example 14, (S)-1-{6-[5-(2H-Pyrazol-3-yl)-pyridin-2-yloxy]-naphthalen-2-ylmethyl}-piperidin-3-ol]
1 nM | 190 nM | O[C@@H]1CCCN(Cc2ccc3cc(Oc4ccc(-c5ccn[nH]5)cn4)ccc3c2)C1 [Example 15, (R)-1-{6-[5-(2H-Pyrazol-3-yl)-pyridin-2-yloxy]-naphthalen-2-ylmethyl}-piperidin-3-ol]
0.7 nM | 160 nM | CN(CCO)Cc1ccc2cc(Oc3ccc(-c4ccn[nH]4)cn3)ccc2c1 [Example 16, 2-(Methyl-{6-[5-(2H-pyrazol-3-yl)-pyridin-2-yloxy]-naphthalen-2-ylmethyl}-amino)-ethanol]
0.75 nM | 160 nM | OCC1CCN(Cc2ccc3cc(Oc4ccc(-c5ccn[nH]5)cn4)ccc3c2)CC1 [Example 17, (1-{6-[5-(2H-Pyrazol-3-yl)-pyridin-2-yloxy]-naphthalen-2-ylmethyl}-piperidin-4-yl)-methanol]
0.76 nM | 160 nM | OC[C@H]1CCN(Cc2ccc3cc(Oc4ccc(-c5ccn[nH]5)cn4)ccc3c2)C1 [Example 18, ((S)-1-{6-[5-(2H-Pyrazol-3-yl)-pyridin-2-yloxy]-naphthalen-2-ylmethyl}-pyrrolidin-3-yl)-methanol]
0.63 nM | 140 nM | CN(Cc1ccc2cc(Oc3ccc(-c4ccn[nH]4)cn3)ccc2c1)[C@@H]1CCN(C(=O)CO)C1 [Example 19, 2-Hydroxy-1-[(R)-3-(methyl-{6-[5-(2H-pyrazol-3-yl)-pyridin-2-yloxy]-naphthalen-2-ylmethyl}-amino)-pyrrolidin-1-yl]-ethanone]
0.76 nM | 150 nM | CN(C(=O)CO)[C@H]1CCN(Cc2ccc3cc(Oc4ccc(-c5ccn[nH]5)cn4)ccc3c2)C1 [Example 20, 2-Hydroxy-N-methyl-N-((S)-1-{6-[5-(2H-pyrazol-3-yl)-pyridin-2-yloxy]-naphthalen-2-ylmethyl}-pyrrolidin-3-yl)-acetamide]
0.67 nM | 100 nM | CN(C(=O)CO)[C@@H]1CCN(Cc2ccc3cc(Oc4ccc(-c5ccn[nH]5)cn4)ccc3c2)C1 [Example 21, 2-Hydroxy-N-methyl-N-((R)-1-{6-[5-(2H-pyrazol-3-yl)-pyridin-2-yloxy]-naphthalen-2-ylmethyl}-pyrrolidin-3-yl)-acetamide]
0.64 nM | 130 nM | OC[C@@H]1CCN(Cc2ccc3cc(Oc4ccc(-c5ccn[nH]5)cn4)ccc3c2)C1 [Example 22, ((R)-1-{6-[5-(2H-Pyrazol-3-yl)-pyridin-2-yloxy]-naphthalen-2-ylmethyl}-pyrrolidin-3-yl)-methanol]
0.9 nM | 170 nM | CN(Cc1ccc2cc(Oc3ccc(-c4ccn[nH]4)cn3)ccc2c1)[C@H]1CCN(C(=O)CO)C1 [Example 23, 2-Hydroxy-1-[(S)-3-(methyl-{6-[5-(2H-pyrazol-3-yl)-pyridin-2-yloxy]-naphthalen-2-ylmethyl}-amino)-pyrrolidin-1-yl]-ethanone]
2 nM | 290 nM | COCC(=O)N1CCN(Cc2ccc3cc(Oc4ncc(-c5ccn[nH]5)cn4)ccc3c2)CC1 [Example 24, 2-Methoxy-1-(4-{6-[5-(2H-pyrazol-3-yl)-pyrimidin-2-yloxy]-naphthalen-2-ylmethyl}-piperazin-1-yl)-ethanone]
1.7 nM | 520 nM | CC(=O)N1CCN(Cc2ccc3cc(Oc4ncc(-c5ccn[nH]5)cn4)ccc3c2)CC1 [Example 25, 1-(4-{6-[5-(2H-Pyrazol-3-yl)-pyrimidin-2-yloxy]-naphthalen-2-ylmethyl}-piperazin-1-yl)-ethanone]
2.3 nM | 240 nM | OC1CCN(Cc2ccc3cc(Oc4ncc(-c5ccn[nH]5)cn4)ccc3c2)CC1 [Example 26, 1-{6-[5-(2H-Pyrazol-3-yl)-pyrimidin-2-yloxy]-naphthalen-2-ylmethyl}-piperidin-4-ol]
1.4 nM | 200 nM | NC(=O)C1CCN(Cc2ccc3cc(Oc4ncc(-c5ccn[nH]5)cn4)ccc3c2)CC1 [Example 27, 1-{6-[5-(2H-Pyrazol-3-yl)-pyrimidin-2-yloxy]-naphthalen-2-ylmethyl}-piperidine-4-carboxylic acid amide]
1.8 nM | 270 nM | CC(=O)NC1CCN(Cc2ccc3cc(Oc4ncc(-c5ccn[nH]5)cn4)ccc3c2)CC1 [Example 28, N-(1-{6-[5-(2H-Pyrazol-3-yl)-pyrimidin-2-yloxy]-naphthalen-2-ylmethyl}-piperidin-4-yl)-acetamide]
1.8 nM | 220 nM | O=C1[C@@H](O)CCN1C1CCN(Cc2ccc3cc(Oc4ncc(-c5ccn[nH]5)cn4)ccc3c2)CC1 [Example 29, (S)-3-Hydroxy-1-(1-{6-[5-(2H-pyrazol-3-yl)-pyrimidin-2-yloxy]-naphthalen-2-ylmethyl}-piperidin-4-yl)-pyrrolidin-2-one]
12 nM |  | N#CC1(C(=O)N2CCN(Cc3ccc4cc(Oc5ccc(-c6ccn[nH]6)cn5)ccc4n3)CC2)CCCC1 [Example 147, 1-(4-{6-[5-(2H-Pyrazol-3-yl)-pyridin-2-yloxy]-quinolin-2-ylmethyl}-piperazine-1-carbonyl)-cyclopentanecarbonitrile]
